# Experimental data reported in patent US12552760B2, “Compounds for increasing the nicotinamide adenine dinucleotide in a subject and methods of use thereof” (The Board of Trustees of the University of Illinois, priority 2022, dated 2026).
# Where two headings read alike, the source gives them in different places.
# Key:
# [1] = tested on: APPSwe/PSEN1dE9 N2A cells; conditions: 10 mM, 72 h; Long, A. N. et al. 2015; cited from earlier work
# Wistar rats [2] = conditions: 100, 300, 500 mg/kg (i.p.) 8 days; Sidhu, A. et al. 2018; cited from earlier work
# [3] = tested on: Brown Norway rats and C57BL/6 mice; conditions: 200-400 mg/kg/d (p.o., rats), 500 mg/kg/d (p.o., mice), various treatment times; Tribble J. R. et al. 2021; cited from earlier work
# HT22 = conditions: 0.1 mM & 1.0 mM, 24 h; Koh, P. 2013; cited from earlier work
# Sprague-Dawley rats [4] = conditions: 500 mg/kg (i.p.) 2 h after MCAO for 22 hrs; Koh, P. 2013; cited from earlier work
# C57BL/6 mice = conditions: 125, 250, 500 mg/kg (i.p.) 1 day (acute), 5 days (sub-acute); Anderson, D. W. et al. 2008; cited from earlier work
# cultured primary neurons = conditions: 2-4 mM, 6 h; Liu, D. et al. 2013; cited from earlier work
# 3xTgAD mice = conditions: 40 mg/kg/d (p.o.) 8 months; Liu, D. et al. 2013; cited from earlier work
# APPSwe/PSEN1dE9 mice [5] = conditions: 100 mg/kg every other day for 28 days; Long, A. N. et al. 2015; cited from earlier work
# [6] = tested on: hSOD1^G93A mouse derived astrocytes and motor neurons; conditions: NR or NMN, 5 mM, 24-72 h; Harlan, B. A. et al. 2019; cited from earlier work
# Sprague-Dawley rats [7] = conditions: 100 mg/kg (i.p.) every other day for 3 months; Chandrasekaran, K. et al. 2020; cited from earlier work
# Wistar rats [8] = conditions: 500 mg/kg/d (i.p.) 10 days; hippocampal slices treated with 10 μM oAβ1-42 for 6 h +/− 1 mM NMN; Wang, X. et al. 2016; cited from earlier work
# CL2355 worms = conditions: 5 mM, 2 nematode generations; Fang, E. F. et al. 2019; cited from earlier work
# CD1 mice = conditions: 300 mg/kg 30 minutes post ICH from tail veil for 24 h or 7 days with (300 mg/kg/d); Wei, C. C. et al. 2017; cited from earlier work
# APPSwe/PSEN1dE9 mice [9] = conditions: 100 mg/kg (s.c.) every other day for 28 days; Yao Z. et al. 2017; cited from earlier work
# NAMPT [10] = biological target: T1, NAMPT (Homo sapiens, UniProt P43490); test: NAMPT coupled enzyme activity assay (HTS coupled three-enzyme assay); format: biochemical; conditions: dose-response (FIG. 1B)
# T1 construct: His6 (C); made in house
# T1 sequence (P43490 whole entry): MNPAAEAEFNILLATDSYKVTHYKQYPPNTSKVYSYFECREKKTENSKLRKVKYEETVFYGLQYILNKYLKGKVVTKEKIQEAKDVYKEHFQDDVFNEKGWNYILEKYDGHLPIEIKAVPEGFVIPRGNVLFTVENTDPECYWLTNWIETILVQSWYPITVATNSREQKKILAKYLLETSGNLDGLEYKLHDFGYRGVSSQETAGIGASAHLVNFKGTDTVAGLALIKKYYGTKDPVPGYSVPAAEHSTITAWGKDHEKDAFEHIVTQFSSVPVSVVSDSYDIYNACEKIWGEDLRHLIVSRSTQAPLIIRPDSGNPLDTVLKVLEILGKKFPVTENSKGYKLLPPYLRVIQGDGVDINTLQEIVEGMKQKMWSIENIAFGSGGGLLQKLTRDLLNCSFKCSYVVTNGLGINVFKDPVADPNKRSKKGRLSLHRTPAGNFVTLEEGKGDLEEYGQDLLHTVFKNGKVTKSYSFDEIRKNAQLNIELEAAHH
# Text: NAMPT coupled enzyme activity assay. The NAMPT enzyme assay is based on conditions from Burgos and Schramm and adapted to include a cycling reaction to quantitate NAD^+ production colorimetrically^1. The assay follows the NAMPT-catalyzed production of NMN from substrates NAM and PRPP by coupling NMN formation to the NMNAT reaction, which produces NAD^+ from NMN and ATP. The NAD^+ is then cycled by alcohol dehydrogenase (ADH) and diaphorase to continuously produce WST-1 formazan, which can be detected at 450 nm. Assays are performed at 25° C. in clear 384-well plates, with a final assay volume of 30 μL, and contain the following: 50 mM HEPES, pH 7.5, 5 mM MgCl2, 50 mM NaCl, 0.01% Triton-X 100, 2.5 mM ATP, 40 μM PRPP, 1-500 μM NAM, 1.5 μL WST-1 (Roche Cell Proliferation Reagent), 1 U/mL ADH, 0.083 U/mL diaphorase, 1.5% ethanol, 1% DMSO, 30 nM NAMPT, and 7.4 nM purified human NMNAT1. N-terminal His6-NMNAT1 and C-terminal His6-NAMPT were overexpressed and purified by metal chelate affinity chromatography. Following assay assembly, well signals were measured continuously at 450 nm on a Tecan Infinite M200 plate reader for 1 h with intermittent shaking. Slopes of the linear portions of the reaction progress curves were recorded and corrected for background by subtracting the average slope of control wells containing NAMPT inhibitor FK866.
# A high-throughput screen (HTS) of 22,000 compounds was performed to identify those that augment NAMPT enzymatic activity^38. Screening used a coupled three-enzyme assay to detect conversion of NAM to NAD^+, as previously described by our group^37. […] We also established assays in which to assess the ability of our compounds to mitigate neuronal oxidative stress.
# THP-1 human monocytes = test: Measurement of cellular NAD^+ levels in THP-1 cell cultures (NAD/NADH-Glo); format: cell-based; conditions: dose response study, 30 μM (FIG. 1A)
# Description: Measurement of cellular NAD^+ levels in THP-1 cell cultures. Using FK-866 and NMN as negative and positive controls, respectively, we explored a number of cell lines to select a highly reproducible model system with good dynamic range. We optimized a commercial NAD-glo assay in the THP-1 human leukemic monocyte cell line in 96-well plates, measuring NAD^+ after incubation with test compounds for 24 hours. […] All cells were grown at 37° C., under 5% CO2 in a humidified incubator. Low passage THP-1 cells (37,500 cells/well) were seeded in 96-well plates and incubated at 37° C. and 5% CO2 for 1½ h prior to a 24 h treatment. All compounds were dissolved in DMSO, and final DMSO concentrations never exceeded 1%. The NAD^+ levels in the cells are measured using the NAD^+/NADH-Glo™ assay (Promega). The assays were performed in triplicate for each concentration and the IC50 values were determined from non-linear regression analysis of the dose-response curve generated in GraphPad Prism 9.
# NAMPT [11] = biological target: T1, NAMPT; test: NP-A3-B2:NAMPT co-crystal structure (X-ray diffraction); conditions: NP-A3-B2, NAM and NAMPT; 1.3-1.5 Å resolution
# Description: X-ray diffraction crystallography. Crystals of NAMPT complexed with NAM and N-PAM were grown by hanging drop vapor diffusion at 16° C. Prior to crystallization, 11 mg/mL NAMPT protein was incubated with 10 mM NAM and 1 mM compound for 30 min on ice. Crystals of the complex were grown by mixing 1-2 μL of NAMPT complex with 2 μL of reservoir solution containing 0.1 M Tris-HCl, pH 8, 0.1 M KCl, and 24-28% PEG 2000 MME or 0.1 M Tris-HCl, pH 8.5, 0.2 M NaCl, 20% glycerol and 13-18% PEG 3350. Crystals grew overnight from the PEG 2000 MME conditions and were used to streak seed drops of NAMPT complex equilibrating against the PEG 3350 conditions.
# Data collection and structure refinement. The glycerol present in the crystallization solution was sufficient to cryo-protect crystals, which were flash-cooled in liquid nitrogen. Data were collected on a MAR300 detector at 0.979 Å at the Life Sciences Collaborative Access Team beamline 21-ID-F at the Advanced Photon Source, Argonne National Laboratory. Data indexing, integration, and scaling were performed using XDS, and phases were determined by molecular replacement using Molrep and a NAMPT-NAM co-crystal structure (PDB entry: 2E5D) as search model. Rigid body refinement followed by iterative rounds of restrained refinement and model building were performed with Phenix and Coot.
# [12] = tested on: HT-22 mouse hippocampal cell line; test: TNFα-induced ROS in HT-22 cells (MitoSOX); format: cell-based; conditions: screened against 1 μg/mL TNFα (FIG. 2A)
# Description: Cell Culture and Drug Treatments. HT22 mouse hippocampal neuronal cells (a gift from the Salk Institute) were grown in Dulbecco's modified Eagle's medium (DMEM) containing 10% FBS and 1× Antibiotic-Antimycotic (ABAM). Cells were maintained in a humidified 5% CO2 atmosphere incubator at 37° C., and were passaged when 60-80% confluent (1-2 days) by removing media, rinsing with phosphate buffered saline (PBS), and enzymatically detaching with trypsin solution. New culture dishes were seeded with ¼ to ½ the cells from the previous dish.
# All assays were performed using cells with passage number 12-50. The inner 60 wells of black-walled (Corning®3603/3604) 96-well plates were treated with poly D-lysine (30 μL/well) making sure to cover the entire well surface for 15-30 seconds and then washed thoroughly with sterile water (3×−200 μL/well). TNFα stock solutions (10 μg/mL, PBS (0.1% BSA)) were made, aliquoted, and stored at −80° C. Glutamate stock solutions were made fresh immediately before assay. All compound stock solutions (10 mM, DMSO) were made and stored at −20° C.
# Cells were plated at a seeding density of 3,000-5,000 cells/well and allowed to incubate overnight. The next day (18-24 hours later) cells were pretreated with N-PAMs, carefully ensuring equivalent vehicle (DMSO/PBS) composition in each well. After 18-24 hours, stressors (glutamate or TNFα) were treated. Live cell count, ROS level, and total cell count were then assessed after another 18-24 hours.
# ROS Detection. ROS levels were quantified using MitoSOX Red Mitochondrial Superoxide Indicator (Invitrogen). At treatment endpoint, the cell culture media was removed and replaced with phosphate buffered saline (PBS) containing 1 μM calcein-AM, 5 μM MitoSOX, and 10 μg/mL Hoechst dyes. Cells were incubated for 30-45 minutes and then dye-containing PBS was dumped and replaced with 100 μL/well fresh PBS. The plate was immediately analyzed in the Celigo Imaging Cytometer using the Live-Dead-Total protocol, where MitoSOX was used in place of propidium iodide. The cell counts and fluorescence intensities for living (calcein), MitoSOX-stained, and total (Hoechst) were acquired. MitoSOX average mean fluorescence intensity (“dead” average mean intensity) was used to quantify mitochondrial ROS. All readouts used were transformed into fold-change over vehicle treatment for visualization.
# We set out to design assays representing the connection between OS and the multifaceted pathophysiology of aging and ND. We assessed multiple treatments in several cell lines to model OS induced by diverse factors such as neuroinflammatory signaling, neurotransmitter signaling, and direct oxidant species. Assay development highlighted the neuronal HT-22 mouse hippocampal cell line as most robust for these purpose s, and inflammatory cytokine TNFα as being a reliable and disease-relevant method for inducing ROS generation.
smiles,measurement,setting,value
"NC(=O)c1ccc[n+]([C@@H]2O[C@H](COP(=O)([O-])OP(=O)(O)OC[C@H]3O[C@@H](n4cnc5c(N)ncnc54)[C@H](O)[C@@H]3O)[C@@H](O)[C@H]2O)c1 [NAD^+, Nicotinamide adenine dinucleotide]",mitochondrial deficits,[1],Reversed
"NC(=O)c1cccnc1 [NAM, nicotinamide]",Neuroprotection,Wistar rats [2],Neuroprotection
same,motor function,Wistar rats [2],Improved motor
same,oxidative stress,Wistar rats [2],Prevented
same,Retinal ganglion neuroprotection,[3],neuroprotection
same,metabolic disruption,[3],Prevented
same,mitochondrial function,[3],Improved
same,Neuroprotection,HT22,Neuroprotection
same,hippocalcin (crucial neuronal protein) depletion,HT22,Prevented
same,Decreased infarct volume,Sprague-Dawley rats [4],volume by 60%
same,hippocalcin depletion,Sprague-Dawley rats [4],Prevented
same,dopamine concentration in both paradigms,C57BL/6 mice,Recovered
same,Neuroprotection,cultured primary neurons,Neuroprotection
same,Aβ and p-Tau,3xTgAD mice,Decreased Aβ
same,cognitive decline,3xTgAD mice,Ameliorated
"NC(=O)c1ccc[n+]([C@@H]2O[C@H](COP(=O)([O-])O)[C@@H](O)[C@H]2O)c1 [NMN, nicotinamide mononucleotide]",APP levels,APPSwe/PSEN1dE9 mice [5],Decreased APP
same,mitochondrial deficits,APPSwe/PSEN1dE9 mice [5],Reversed
same,Nrf2 mediated Antioxidant Response Element activation,[6],Increased Nrf2
same,Neuroprotective,Sprague-Dawley rats [7],Neuroprotective
same,"brain NAD^+, metabolites, and neurotransmitters",Sprague-Dawley rats [7],Normalized brain
same,hippocampal CA1 volume,Sprague-Dawley rats [7],Preserved
same,memory,Sprague-Dawley rats [7],Improved memory
same,mitochondrial function,Sprague-Dawley rats [7],Improved
same,LTP,Wistar rats [8],Improved LTP
same,NAD^+ and ATP,Wistar rats [8],· Restored NAD^+
same,Neuroprotection,Wistar rats [8],Neuroprotection
same,oxidative stress,Wistar rats [8],Attenuated
same,spatial learning and memory,Wistar rats [8],Improved spatial
same,cognitive decline and memory impairment,CL2355 worms,Ameliorated
same,Neuroprotective,CD1 mice,Neuroprotective
same,acute brain injury,CD1 mice,Protected against
same,motor function recovery over 7 days,CD1 mice,Enhanced motor
same,oxidative stress and neuroinflammation,CD1 mice,Reduced
same,APP processing,APPSwe/PSEN1dE9 mice [9],Biased APP to α
same,Aβ aggregation,APPSwe/PSEN1dE9 mice [9],· Decreased Aβ
same,cognitive impairments,APPSwe/PSEN1dE9 mice [9],Prevented
same,neuroinflammation,APPSwe/PSEN1dE9 mice [9],Decreased
same,synaptic loss,APPSwe/PSEN1dE9 mice [9],Prevented
"COc1ccc(CN(CCC2(C(C)C)CCOC(C)(C)C2)C(=O)c2ccco2)cc1 (centres unmarked) [NP-A3-B2, N-[(4-Methoxyphenyl)methyl]-N-[2-[tetrahydro-2,2-dimethyl-4-(1-methylethyl)-2H-pyran-4-yl]ethyl]-2-furancarboxamide]",EC50,NAMPT [10]; NAMPT activation,4.05 µM
same,Amax,NAMPT [10],1.85 fold
same,NAD^+ fold over control,THP-1 human monocytes,1.18 fold
same,increase in NAD^+ over control,THP-1 human monocytes,18%
same,binding mode in co-crystal structure,NAMPT [11],allosteric binding of the hit to the NAMPT rear channel
same,effect on ROS levels across tested concentrations,[12],little effect until 40 μM
